# Data reported in PubChem BioAssay (NCI).
#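 In this assay, cells in 96-well plates receive the compound at five concentrations for 48 hours. Endpoints are linearly interpolated between the surrounding concentrations. GI50 marks 50% less growth. At the TGI there is no net growth.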
# Legend:
# Experiment in all cases: NCI tumour cell line growth inhibition, 48 h
# IGROV1 ovarian = system: IGROV1 ovarian
# NCI-H522 lung = system: NCI-H522 lung
# OVCAR-3 ovarian = system: OVCAR-3 ovarian
# OVCAR-5 ovarian = system: OVCAR-5 ovarian
# SF-295 CNS = system: SF-295 CNS
# SF-539 CNS = system: SF-539 CNS
# SNB-19 CNS = system: SNB-19 CNS
# SR leukemia = system: SR leukemia
# MDA-MB-435 = system: MDA-MB-435
# T-47D breast = system: T-47D breast
Structure (SMILES),TGI (IGROV1 ovarian) [µM],TGI (NCI-H522 lung) [µM],TGI (OVCAR-3 ovarian) [µM],TGI (OVCAR-5 ovarian) [µM],TGI (SF-295 CNS) [µM],TGI (SF-539 CNS) [µM],TGI (SNB-19 CNS) [µM],TGI (SR leukemia) [µM],GI50 (IGROV1 ovarian) [µM],GI50 (MDA-MB-435) [µM],TGI (MDA-MB-435) [µM],GI50 (NCI-H522 lung) [µM],GI50 (OVCAR-3 ovarian) [µM],GI50 (OVCAR-5 ovarian) [µM],GI50 (SF-295 CNS) [µM],GI50 (SF-539 CNS) [µM],GI50 (SNB-19 CNS) [µM],GI50 (T-47D breast) [µM],TGI (T-47D breast) [µM]
c1ccc2c(c1)[Se]c1ccccc1[Se]2,> 100,> 100,> 100,> 100,73.8,> 100,> 100,> 100,–,–,–,–,–,–,–,–,–,–,–
NC(CCc1nc(-c2ccccc2)cs1)C(=O)O (configuration not stated),> 100,> 100,> 100,–,> 100,> 100,> 100,–,–,–,–,–,–,–,–,–,–,–,–
O=S(O)CCCCSSCCCCS(=O)(O)=S,> 100,65.6,> 100,> 100,> 100,> 100,> 100,–,–,–,–,–,–,–,–,–,–,–,–
COc1cccc(NC(=O)c2ccc(C(F)(F)F)nc2Nc2ccc(Cl)cc2C)c1,22.2,7.18,19.9,20,28.6,30.5,28.7,–,10.5,12.1,27.2,1.28,4.69,2.51,12.4,15.1,13.8,4.31,25.1
COC(=O)c1c(C(=O)OC)c(C(=O)OC)c(C(=O)OC)c1C(=O)OC,> 100,> 100,> 100,> 100,> 100,> 100,> 100,–,–,–,–,–,–,–,–,–,–,–,–
CCC1N2CCCCC2[C@@H]2c3[nH]c4ccccc4c3CCN12 (some centres not stated),> 100,> 100,> 100,> 100,> 100,> 100,> 100,–,–,–,–,–,–,–,–,–,–,–,–
Cc1cc(Cl)ccc1N1C(=O)C(=O)C(c2nc3ccccc3s2)/C(=N\NC(=O)c2ccccc2O)C1=O (configuration not stated),> 100,> 100,> 100,> 100,> 100,> 100,> 100,> 100,–,–,–,–,–,–,–,–,–,–,–
CC(=O)C1C(=O)C(=O)N(c2ccc(Cl)cc2C)C1=O (configuration not stated),> 100,> 100,–,> 100,> 100,> 100,> 100,> 100,–,–,–,–,–,–,–,–,–,–,–
Cc1cc(Cl)ccc1OCC(=O)Oc1c(Cl)c(Cl)c(Cl)c(Cl)c1Cl,79.5,48.4,39,59.2,67.9,> 100,75.5,60,–,–,68.9,–,–,–,–,–,–,–,–
CC(C)[C@H](COC(C)(C)C)N=CN1CSc2ccccc21,> 100,> 100,58.2,> 100,67.4,65.6,> 100,–,–,–,–,–,–,–,–,–,–,–,–
CNC1=C(Br)C(=O)C2=C(C1=O)C1C3=C(C(=O)C=CC3=O)C2c2ccccc21 (configuration not stated),18,> 22.4,10.9,31.4,45.8,–,67.4,–,4.69,6.59,14.7,6.7,5.29,6.96,19.2,–,14.4,2.9,> 40.3
NC(N)=NS(=O)(=O)c1ccc(NC(=O)c2ccc(Cl)c3c(Nc4ccc(S(=O)(=O)N=C(N)N)cc4)c4ccccc4nc23)cc1,> 100,> 100,> 100,> 100,> 100,> 100,> 100,–,–,–,–,–,–,–,–,–,–,–,–
